Measured values published in ChEMBL document CHEMBL3797039, “Bcl-2/MDM2 Dual Inhibitors Based on Universal Pyramid-Like α-Helical Mimetics” (J Med Chem, 2016).
Each block holds one compound with its values, some of them ahead of it. Active and inactive are the calls of the source. No cut-off for these calls is given here.

Legend:
[1] = Cell cycle arrest in human HCT116 p53+/+ cells assessed as accumulation at <G1 phase at 5 uM after 24 hrs by propidium iodide staining-based flow cytometric method (reference value: 0.3%); format: functional; details: HCT-116
[2] = biological target: T1, E3 ubiquitin-protein ligase Mdm2 (Homo sapiens, UniProt Q00987); test: Inhibition of MDM2-p53 interaction in human HCT116 p53+/+ cells assessed as upregulation of p53 expression at 5 to 10 uM after 12 hrs by immunoblotting method; format: cell-based; details: HCT-116
Target sequence in this assay (Q00987 whole entry, looked up): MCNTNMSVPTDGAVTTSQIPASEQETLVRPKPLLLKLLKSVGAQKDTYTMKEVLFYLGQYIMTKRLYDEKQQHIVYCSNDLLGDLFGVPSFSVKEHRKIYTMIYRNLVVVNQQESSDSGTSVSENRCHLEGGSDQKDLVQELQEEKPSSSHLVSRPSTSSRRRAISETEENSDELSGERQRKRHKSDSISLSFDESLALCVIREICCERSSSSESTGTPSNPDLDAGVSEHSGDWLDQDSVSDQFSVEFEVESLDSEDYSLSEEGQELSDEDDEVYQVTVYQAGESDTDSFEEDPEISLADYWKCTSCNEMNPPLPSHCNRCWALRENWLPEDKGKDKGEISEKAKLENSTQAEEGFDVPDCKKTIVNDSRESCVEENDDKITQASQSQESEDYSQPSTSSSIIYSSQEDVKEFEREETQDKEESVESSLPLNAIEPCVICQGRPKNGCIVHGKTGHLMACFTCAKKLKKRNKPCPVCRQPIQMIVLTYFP

[3] = biological target: T1, E3 ubiquitin-protein ligase Mdm2; test: Inhibition of MDM2-p53 interaction in human HCT116 p53+/+ cells assessed as upregulation of MDM2 expression at 5 to 10 uM after 12 hrs by immunoblotting method; format: cell-based; details: HCT-116
Target sequence in this assay (Q00987 whole entry, looked up): as above

[4] = biological target: T1, E3 ubiquitin-protein ligase Mdm2; test: Inhibition of MDM2-p53 interaction in human HCT116 p53+/+ cells assessed as upregulation of p21 expression at 5 to 10 uM after 12 hrs by immunoblotting method; format: cell-based; details: HCT-116
Target sequence in this assay (Q00987 whole entry, looked up): as above

[5] = Cell cycle arrest in human HCT116 p53-/- cells assessed as accumulation at G1 phase at 10 uM after 24 hrs by propidium iodide staining-based flow cytometric method (reference value: 28%); format: functional; details: HCT-116
[6] = Cell cycle arrest in human HCT116 p53-/- cells assessed as accumulation at <G1 phase at 10 uM after 24 hrs by propidium iodide staining-based flow cytometric method (reference value: 0.6%); format: functional; details: HCT-116
[7] = Cell cycle arrest in human HCT116 p53+/+ cells assessed as accumulation at G2/M phase at 5 uM after 24 hrs by propidium iodide staining-based flow cytometric method (reference value: 26%); format: functional; details: HCT-116
[8] = Cell cycle arrest in human HCT116 p53+/+ cells assessed as accumulation at S phase at 5 uM after 24 hrs by propidium iodide staining-based flow cytometric method (reference value: 42%); format: functional; details: HCT-116
[9] = Cell cycle arrest in human HCT116 p53+/+ cells assessed as accumulation at G1 phase at 5 uM after 24 hrs by propidium iodide staining-based flow cytometric method (reference value: 31%); format: functional; details: HCT-116
[10] = Cell cycle arrest in human HCT116 p53-/- cells assessed as accumulation at S phase at 10 uM after 24 hrs by propidium iodide staining-based flow cytometric method (reference value: 36%); format: functional; details: HCT-116
[11] = Cell cycle arrest in human HCT116 p53-/- cells assessed as accumulation at G2/M phase at 10 uM after 24 hrs by propidium iodide staining-based flow cytometric method (reference value: […]%); format: functional; details: HCT-116
[12] = test system: HCT-116; test: Induction of apoptosis in human HCT116 p53+/+ cells after 48 hrs by Annexin V-FITC staining-based flow cytometric method; format: functional, cell-based
[13] = biological target: T2, Apoptosis regulator Bcl-2 (Homo sapiens, UniProt P10415); test: Inhibition of BCl-2/Bim interaction in human DMS53 cells harboring p53 mutant at 5 to 10 uM after 12 hrs by immunoprecipitation method; format: cell-based; details: DMS-53
T2 sequence (P10415 whole entry): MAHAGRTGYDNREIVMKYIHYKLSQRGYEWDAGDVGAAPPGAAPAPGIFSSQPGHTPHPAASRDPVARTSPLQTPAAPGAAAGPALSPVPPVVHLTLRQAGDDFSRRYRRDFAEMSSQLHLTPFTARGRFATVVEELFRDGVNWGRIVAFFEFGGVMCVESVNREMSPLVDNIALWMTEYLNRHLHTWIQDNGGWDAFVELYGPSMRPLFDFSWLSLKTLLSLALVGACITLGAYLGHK

[14] = biological target: T2, Apoptosis regulator Bcl-2; test: Inhibition of BCl-2/Bax interaction in human DMS53 cells harboring p53 mutant at 5 to 10 uM after 12 hrs by immunoprecipitation method; format: cell-based; details: DMS-53
[15] = test system: DMS-53; test: Induction of apoptosis in human DMS53 cells harboring p53 mutant assessed as caspase-3 cleavage at 5 to 10 uM after 12 hrs by immunoblotting method; format: functional, cell-based
[16] = test system: DMS-53; test: Induction of apoptosis in human DMS53 cells harboring p53 mutant assessed as cytochrome c release at 5 to 10 uM after 12 hrs by immunoblotting method; format: functional, cell-based
[17] = test system: DMS-53; test: Induction of apoptosis in human DMS53 cells harboring p53 mutant assessed as PARP cleavage at 5 to 10 uM after 12 hrs by immunoblotting method; format: functional, cell-based
[18] = biological target: T3, Induced myeloid leukemia cell differentiation protein Mcl-1 (Homo sapiens, UniProt Q07820); test: Displacement of FAM-Bid peptide from N-terminal 8x His-tagged MCl-1 (unknown origin) expressed in Escherichia coli BL21 (DE3) after 30 mins by fluorescence polarization assay
T3 sequence (Q07820 whole entry): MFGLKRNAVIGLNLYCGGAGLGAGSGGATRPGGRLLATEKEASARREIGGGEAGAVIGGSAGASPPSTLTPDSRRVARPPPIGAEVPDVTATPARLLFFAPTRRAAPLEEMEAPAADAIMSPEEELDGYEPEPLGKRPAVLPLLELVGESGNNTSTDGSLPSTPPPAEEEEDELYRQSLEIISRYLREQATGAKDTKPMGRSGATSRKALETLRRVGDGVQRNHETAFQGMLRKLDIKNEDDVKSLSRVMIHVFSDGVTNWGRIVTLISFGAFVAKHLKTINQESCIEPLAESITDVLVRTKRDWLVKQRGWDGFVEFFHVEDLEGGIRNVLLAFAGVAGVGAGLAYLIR

[19] = biological target: T2, Apoptosis regulator Bcl-2; test: Displacement of FAM-Bid peptide from N-terminal 8x His-tagged Bcl-2 (unknown origin) expressed in Escherichia coli BL21 (DE3) after 30 mins by fluorescence polarization assay
[20] = biological target: T1, E3 ubiquitin-protein ligase Mdm2; test: Displacement of FAM-p53TAD peptide from N-terminal 8x His-tagged human MDM2 (25 to 108 residues) expressed in Escherichia coli BL21 (DE3) after 30 mins by fluorescence polarization assay
Target sequence in this assay (Q00987 whole entry): as the sequence (Q00987 whole entry, looked up) above

[21] = biological target: T1, E3 ubiquitin-protein ligase Mdm2; test: Binding affinity to N-terminal 8x His-tagged human MDM2 (25 to 108 residues) expressed in Escherichia coli BL21 (DE3) by isothermal titration microcalorimetric method
Target sequence in this assay (Q00987 whole entry): as the sequence (Q00987 whole entry, looked up) above

[22] = biological target: T2, Apoptosis regulator Bcl-2; test: Binding affinity to N-terminal 8x His-tagged Bcl-2 (unknown origin) expressed in Escherichia coli BL21 (DE3) by isothermal titration microcalorimetric method
[23] = biological target: T3, Induced myeloid leukemia cell differentiation protein Mcl-1; test: Binding affinity to N-terminal 8x His-tagged MCl-1 (unknown origin) expressed in Escherichia coli BL21 (DE3) by isothermal titration microcalorimetric method
[24] = test system: HCT-116; test: Effect on MDM2 expression in human HCT116 p53-/- cells at 10 to 20 uM after 12 hrs by immunoblotting method; format: functional, cell-based
[25] = test system: HCT-116; test: Effect on p53 expression in human HCT116 p53-/- cells at 10 to 20 uM after 12 hrs by immunoblotting method; format: functional, cell-based
[26] = test system: HCT-116; test: Effect on p21 expression in human HCT116 p53-/- cells at 10 to 20 uM after 12 hrs by immunoblotting method; format: functional, cell-based
[27] = Upregulation of p53 mRNA expression in human HCT116 p53+/+ cells at 10 uM after 12 hrs by qPCR method; format: functional, cell-based; details: HCT-116
[28] = biological target: T3, Induced myeloid leukemia cell differentiation protein Mcl-1; test: Inhibition of Mcl-1/Bim interaction in human DMS53 cells harboring p53 mutant at 5 to 10 uM after 12 hrs by immunoprecipitation method; format: cell-based; details: DMS-53
[29] = biological target: T3, Induced myeloid leukemia cell differentiation protein Mcl-1; test: Inhibition of Mcl-1/Bax interaction in human DMS53 cells harboring p53 mutant at 5 to 10 uM after 12 hrs by immunoprecipitation method; format: cell-based; details: DMS-53
[30] = biological target: T2, Apoptosis regulator Bcl-2; test: Binding affinity to 15N-labeled Bcl-2 (unknown origin) by 2D 1H-15N HSQC NMR spectroscopic method

Compound: CN(C)CC[C@H](CSc1ccccc1)Nc1ccc(S(=O)(=O)NC(=O)c2ccc(N3CCN(Cc4ccccc4-c4ccc(Cl)cc4)CC3)cc2)cc1[N+](=O)[O-]
- Activity [1]: 7.1%
- inhibition [2]: inactive
- inhibition [3]: inactive
- inhibition [4]: inactive
- Activity [5]: 26%
- Activity [6]: 6.4%
- Activity [7]: 24%
- Activity [8]: 40%
- Activity [9]: 28%
- Activity [10]: 32%
- Activity [11]: 34%
- Activity [12]: Active
- inhibition [13]: Active
- inhibition [14]: Active
- Activity [15]: Active
- Activity [16]: Active
- Activity [17]: Active

Compound: CCOc1ccc(-c2cc(C(=O)O)nn2-c2ccc(Oc3ccccc3)cc2)cc1
- Ki [18]: 451 nM
- Ki [19]: 694 nM
- Ki [20]: 1030 nM

Compound: CCOc1ccc(-c2c(NC(=O)c3ccccc3)c(C(=O)O)nn2-c2ccc(Oc3ccccc3)cc2)cc1
- Ki [18]: 635 nM
- Ki [19]: 855 nM
- Ki [20]: 1130 nM

Compound: Cc1cc2c(C(C)C)c(O)c(O)c(C=O)c2c(O)c1-c1c(C)cc2c(C(C)C)c(O)c(O)c(C=O)c2c1O [GOSSYPOL]
- Ki [18]: 260 nM
- Ki [20]: > 25000 nM

Compound: CC(C)Oc1ccc(-c2cc(C(=O)O)nn2-c2ccccc2)cc1
- Ki [18]: 3620 nM
- Ki [19]: 7000 nM
- Ki [20]: 2290 nM

Compound: CCOc1ccc(-c2cc(C(=O)O)nn2-c2ccccc2)cc1
- Ki [18]: 3800 nM
- Ki [19]: 6090 nM
- Ki [20]: 3260 nM

Compound: CC(C)c1ccc(-n2nc(C(=O)O)cc2-c2ccc(OCc3ccccc3)cc2)cc1
- Ki [18]: 226 nM
- Ki [19]: 385 nM
- Ki [20]: 616 nM

Compound: O=C(O)c1cc(-c2ccc(OCc3ccccc3)cc2)n(-c2ccccc2)n1
- Ki [18]: > 10000 nM
- Ki [19]: > 10000 nM
- Ki [20]: 19800 nM

Compound: COc1ccc(C2=N[C@@H](c3ccc(Cl)cc3)[C@@H](c3ccc(Cl)cc3)N2C(=O)N2CCNC(=O)C2)c(OC(C)C)c1 [NUTLIN-3]
- Ki [18]: > 10000 nM
- Ki [19]: > 10000 nM
- Activity [1]: 0.9%
- Activity [5]: 29%
- Activity [6]: 0.8%
- Activity [7]: 49%
- Activity [8]: 8%
- Activity [9]: 41%
- Activity [10]: 35%
- Activity [11]: 34%
- inhibition [13]: inactive
- inhibition [14]: inactive
- inhibition [28]: inactive
- inhibition [29]: inactive
- Kd [30]: 15000 nM

Compound: O=C(O)c1cc(-c2ccccc2)n(-c2ccccc2)n1
- Ki [18]: > 10000 nM
- Ki [19]: > 10000 nM
- Ki [20]: > 25000 nM

Compound: CC(C)Oc1ccc(-c2cc(C(=O)O)nn2-c2ccc(C(C)C)cc2)cc1
- Ki [18]: 2390 nM
- Ki [19]: 5250 nM
- Ki [20]: 2140 nM

Compound: CC(C)COc1ccc(-c2cc(C(=O)O)nn2-c2ccccc2)cc1
- Ki [18]: 8110 nM
- Ki [19]: > 10000 nM
- Ki [20]: 7420 nM

Further lines, with some results ahead:

- Ki [18]: 247 nM
- Ki [19]: 207 nM
- Ki [20]: 24300 nM
Compound: Cc1ccc(/N=c2\c3ccc(C)cc3n(C(=O)c3ccc(C(C)(C)C)cc3)c3c(O)c(O)c(O)cc23)cc1

- Ki [18]: 81 nM
- Ki [19]: 28 nM
- Ki [20]: 301 nM
Compound: CCOc1ccc(-c2c(NC(=O)c3ccc(OC(C)C)cc3)c(C(=O)O)nn2-c2ccc(Oc3ccccc3)cc2)cc1

- Ki [18]: 4520 nM
- Ki [19]: 5160 nM
- Ki [20]: 4280 nM
Compound: COC(=O)c1nn(-c2ccc(Oc3ccccc3)cc2)c(-c2ccc(OC(C)C)cc2)c1NC(=O)c1ccc(OC(C)C)cc1

- Ki [18]: 2600 nM
- Ki [19]: > 10000 nM
- Ki [20]: 2190 nM
Compound: CC(C)Oc1ccc(C(=O)Nc2c(C(=O)O)nn(-c3ccc(C(C)C)cc3)c2-c2ccc(OCc3ccccc3)cc2)cc1

- Ki [18]: 79 nM
- Ki [19]: 56 nM
- Ki [20]: > 25000 nM
Compound: CC(C)c1ccc2/c(=N\c3ccc(Oc4ccccc4)cc3)c3cc(O)c(O)c(O)c3n(C(=O)c3ccc(C(C)(C)C)cc3)c2c1

- Ki [18]: 404 nM
- Ki [19]: 406 nM
- Ki [20]: 689 nM
Compound: CCOc1ccc(-c2c(NC(=O)c3ccc(C(C)(C)C)cc3)c(C(=O)O)nn2-c2ccc(Oc3ccccc3)cc2)cc1

- Ki [18]: 161 nM
- Ki [19]: 140 nM
- Ki [20]: 107 nM
- Kd [21]: 472 nM
- Kd [22]: 290 nM
- Kd [23]: 265 nM
Compound: CC(C)Oc1ccc(C(=O)Nc2c(C(=O)O)nn(-c3ccc(Oc4ccccc4)cc3)c2-c2ccc(OC(C)C)cc2)cc1
- Activity [1]: 6.8%
- Activity [24]: inactive
- Activity [25]: inactive
- Activity [26]: inactive
- Activity [27]: inactive
- Activity [5]: 30%
- Activity [6]: 5.2%
- Activity [7]: 47%
- Activity [8]: 6%
- Activity [9]: 40%
- Activity [10]: 33%
- Activity [11]: 31%
- Activity [15]: Active
- Activity [16]: Active
- Activity [17]: Active

- Ki [18]: 371 nM
- Ki [19]: 932 nM
- Ki [20]: 712 nM
Compound: CC(C)Oc1ccc(-c2cc(C(=O)O)nn2-c2ccc(Oc3ccccc3)cc2)cc1

- Ki [18]: 722 nM
- Ki [19]: 1400 nM
- Ki [20]: 422 nM
Compound: CC(C)COc1ccc(C(=O)Nc2c(C(=O)O)nn(-c3ccc(Oc4ccccc4)cc3)c2-c2ccc(OC(C)C)cc2)cc1

- Ki [18]: > 10000 nM
- Ki [19]: > 10000 nM
- Ki [20]: 4470 nM
Compound: CC(C)Oc1ccc(C(=O)Nc2c(C(=O)O)nn(-c3ccc(Oc4ccccc4)cc3)c2-c2ccc(OCc3ccccc3)cc2)cc1

- Ki [18]: 393 nM
- Ki [19]: 1040 nM
- Ki [20]: 446 nM
Compound: CCOc1ccc(-c2c(NC(=O)c3ccc(OCC(C)C)cc3)c(C(=O)O)nn2-c2ccc(Oc3ccccc3)cc2)cc1
